51 molecules from ChEMBL document CHEMBL1201862, “PubChem BioAssay data set” (2004) can be followed below.

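Cultured in 96-well plates, cells were exposed to test compound for 48 hours across five concentrations. At the GI50, growth is halved.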 Active and inactive are the calls of the source. Rule as the data show it: active = GI50 up to about 1.1 µM and inactive = higher.

Assay in all cases: DTP human tumour cell line panel, 48 h
Experiment [1] has as its system BT-549.
Experiment [2] relates to DU-145.
Experiment [3] concerns NCI/ADR-RES.
Experiment [4] concerns DLD-1.
In experiment [5] the test system is DMS-114.
The subject of experiment [6] is LXFL 529.
In experiment [7] the test system is DMS-273.

For orientation: GI50 means the concentration giving 50% growth inhibition.

For `Cc1cccc(N(CCC#N)S(=O)(=O)c2ccccc2)c1`, the GI50 in experiment [1], in experiment [2] and in experiment [3] was > 100 µM (inactive) in each case.
For the molecule `O=[N+]([O-])c1nccn1COCCF`, the GI50 in experiment [4], in experiment [5] and in experiment [6] was > 100 µM (inactive) in each case.
On to `CC(Nc1cccc(Cl)c1)c1ccncc1` (stereo unspecified), for which the GI50 in experiment [1] was > 100 µM (inactive); in experiment [2], 94.4 µM (inactive); in experiment [3], 51.3 µM (inactive).
As to `NC1CC(=O)c2c(Cl)sc(Cl)c21` (stereo unspecified), the GI50 in experiment [1] was 3.76 µM (inactive); in experiment [2], 5.55 µM (inactive); in experiment [3], 15 µM (inactive).
Regarding `COc1c(/C=C/C=O)cc2c(c1OC)OCO2`, the results for the GI50 in experiment [1], in experiment [2] and in experiment [3] were 47.3 µM (inactive), 28.4 µM (inactive) and 33.3 µM (inactive), respectively.
Regarding `CN(C)CCCNC(=O)c1c(O)c2ccccc2n(C)c1=O`, the values for the GI50 in experiment [1], in experiment [2] and in experiment [3] were 70 µM (inactive), > 100 µM (inactive) and 41.2 µM (inactive), respectively.
`CC(=O)Nc1c(S(=O)(=O)c2ccccc2)c(C)c(C)n1CCN(C)C`: the GI50 in experiment [1], in experiment [2] and in experiment [3] was > 100 µM (inactive) each time.
Turning to `C[C@@H]1S[C@H](c2c(Cl)cccc2Cl)N2Cc3ccccc3N=C12`, the GI50 in experiment [1] and in experiment [2] was > 100 µM (inactive) throughout.
`COc1cc(/C=C2\C[C@H]3[C@@H]4CC=C5C[C@@H](OC(C)=O)CC[C@]5(C)[C@H]4CC[C@]3(C)\C2=N\O)cc(OC)c1OC`: the GI50 in experiment [1] is 5.01 µM (inactive); in experiment [2], 4.42 µM (inactive); in experiment [3] it was 3.78 µM (inactive).
In the case of `CC1CC(=O)N2CCCNC2=C1C#N` (stereo unspecified), the GI50 in experiment [1], in experiment [2] and in experiment [3] was > 100 µM (inactive) in each case.
Regarding `CSc1c(C#N)c(O)n(-c2ccc(C)cc2)c(=O)c1C#N`, the GI50 in experiment [1], in experiment [2] and in experiment [3] was > 100 µM (inactive) throughout.
`O=C1OC(c2ccccc2)=N/C1=C/NC(Cc1c[nH]c2ccccc12)C(=O)O` (stereo unspecified): the GI50 in experiment [4], in experiment [5], in experiment [7] and in experiment [6] was > 100 µM (inactive) each time.
As to `Cn1c(=N)n[n+]([O-])c2ccccc21`, the figures for the GI50 in experiment [1] and in experiment [2] were 2.01 µM (inactive) and 2.28 µM (inactive), respectively.
Take `COC(=O)C[C@H](COCc1ccccc1)NC(=O)C[C@H](COCc1ccccc1)NC(=O)C[C@H](COCc1ccccc1)NC(=O)OC(C)(C)C`: the GI50 in experiment [1] was > 100 µM (inactive); in experiment [2] it was 23.3 µM (inactive); in experiment [3], > 100 µM (inactive).
`Cn1cnc([N+](=O)[O-])c1Sc1nc(N)nc2c1ncn2[C@H]1C[C@H](O)[C@@H](CO)O1`: the GI50 in experiment [1] was 5.62 µM (inactive); in experiment [2] it was 1.21 µM (inactive); in experiment [3], 1.28 µM (inactive).
In the case of `CC(C)=CCc1c2c(c(O)c3c(=O)c4c(oc13)-c1ccc(O)cc1OC4C=C(C)C)C=CC(C)(C)O2` (stereo unspecified), the results for the GI50 in experiment [1], in experiment [2] and in experiment [3] were 13.9 µM (inactive), 14 µM (inactive) and 16.9 µM (inactive), respectively.
As to `O=C(CNC(=O)OCc1ccccc1)NCCCCC(NC(=O)OCc1ccccc1)C(=O)NC(CCCCNC(=O)CNC(=O)OCc1ccccc1)C(=O)OCc1ccccc1` (stereo unspecified), the GI50 in experiment [1] and in experiment [2] was > 62.5 µM (inactive) throughout.
On to `Cc1ccc(OCC2OC(n3cnc4c(N(C)C)nc(Br)nc43)CC2Oc2ccc(C)cc2)cc1` (stereo unspecified), for which the GI50 in experiment [1], in experiment [2] and in experiment [3] was > 100 µM (inactive) throughout.
In the case of `COC1C(=O)CCC2(CO2)C1(O)C1(C)OC1CC=C(C)C` (stereo unspecified), the values for the GI50 in experiment [1] and in experiment [2] were 50.6 µM (inactive) and 19.5 µM (inactive), respectively.
Turning to `CC(C)OP(=O)(OC(C)C)/C(=N/Nc1ccc([N+](=O)[O-])cc1)NN`, the GI50 in experiment [4] is > 100 µM (inactive); in experiment [5], 61.1 µM (inactive); in experiment [7], > 100 µM (inactive); in experiment [6] it was 41.5 µM (inactive).
As for `CC1(C)C=Cc2c(cc3oc4ccc5c(c4c(=O)c3c2O)C=CC(C)(C)O5)O1`, the GI50 in experiment [1], in experiment [2] and in experiment [3] was > 100 µM (inactive) throughout.
On to `[O-]/N=[N+](/[O-])C1CCCCC1=[N+]1CCOCC1` (stereo unspecified), for which the GI50 in experiment [5] and in experiment [6] was > 100 µM (inactive) in each case.
For the molecule `Clc1cccc(N/N=N/c2ccc(-c3nc4ccccc4s3)cc2)c1`, the GI50 was 51.2 µM (inactive) in experiment [1], > 100 µM (inactive) in experiment [2] and 27.9 µM (inactive) in experiment [3].
As for `COc1ccc(/C=C2/CSCC3=C2N=C(S)NC3c2ccc(OC)c(OC)c2OC)c(OC)c1OC` (stereo unspecified), the values for the GI50 in experiment [2] and in experiment [3] were 38.3 µM (inactive) and 7.43 µM (inactive), respectively.
In the case of `COc1ccc2c(c1)CN1C(=N2)CSC1c1cccc(Br)c1` (stereo unspecified), the figures for the GI50 in experiment [1] and in experiment [3] were 26.2 µM (inactive) and 48.8 µM (inactive), respectively.
On to `CCOC(=O)C(=O)Nc1c(CC)cccc1C(C)C`, for which the GI50 in experiment [4], in experiment [7] and in experiment [6] was > 100 µM (inactive) throughout.
With `CC(C)C1C(=O)N(c2c(F)c(F)c(F)c(F)c2F)C(=S)N1CC[S+]([O-])c1ccccc1` (stereo unspecified), the GI50 in experiment [1] is 15.9 µM (inactive); in experiment [2], 20.7 µM (inactive); in experiment [3], 20 µM (inactive).
For the molecule `O=C(CSCC(=O)N/N=C/c1ccncc1)N/N=C/c1ccncc1`, the GI50 in experiment [1], in experiment [2] and in experiment [3] was > 100 µM (inactive) each time.
As for `Cc1ccc(S(=O)(=O)NC(CO)C(=O)O)cc1` (stereo unspecified), the GI50 in experiment [1], in experiment [2] and in experiment [3] was > 100 µM (inactive) in each case.
For `COc1cc(OCCN(C)C)c2[nH]c(C(=O)N3CC(CCl)c4ccc(N)cc43)cc2c1` (stereo unspecified), the GI50 in experiment [1] is 0.351 µM (active); in experiment [2], 0.0142 µM (active); in experiment [3] it was 0.0376 µM (active).
On the same counts, the results for `O=C(/C=C/c1ccc(-c2ccccc2)cc1)NCc1ccc(C(=O)NCCc2c[nH]c3ccccc23)cc1` are 37.2 µM (inactive), > 100 µM (inactive) and 60 µM (inactive).
Take `COC(=O)c1cc(/C=C/C(=O)Cc2ccccc2)cn1S(=O)(=O)c1ccccc1`: the GI50 in experiment [1], in experiment [2] and in experiment [3] was > 100 µM (inactive) throughout.
Regarding `Nc1nc(Cl)cc(NC2(CO)CCC2)n1`, the GI50 in experiment [1], in experiment [2] and in experiment [3] was > 100 µM (inactive) each time.
Turning to `NC1c2c(Br)sc(N3CCCC3)c2C(=O)C1O` (stereo unspecified), the GI50 in experiment [1], in experiment [2] and in experiment [3] was > 50 µM (inactive) each time.
On to `NC1=NCC(CN2CCCCC2)O1` (stereo unspecified), for which the GI50 in experiment [1] and in experiment [3] was > 100 µM (inactive) throughout.
Regarding `COC(=O)c1c2c(cc3c1CC1(C3)Cc3cc4c(c(C(=O)OC)c3C1)CCC4)CCC2`, the GI50 in experiment [3] is > 100 µM (inactive).
In the case of `Cc1cc(NS(=O)(=O)c2ccc(Nc3c4ccccc4nc4ccc(C(=O)Nc5ccc(S(N)(=O)=O)cc5)cc34)cc2)no1`, the GI50 in experiment [1], in experiment [2] and in experiment [3] was > 100 µM (inactive) each time.
As for `CC(=O)OC1CC[C@@]2(C)C(=CC[C@@H]3[C@@H]2CC[C@]2(C)C(OC(C)=O)[C@H](n4ccnc4)C[C@@H]32)C1` (stereo partly specified), the GI50 was 73.5 µM (inactive) in experiment [2] and 25.8 µM (inactive) in experiment [3].
On to `C/C(=N\Nc1nc2ccccc2[nH]1)c1ccc2ccccc2n1`, for which the GI50 was > 100 µM (inactive) in experiment [1], 1.91 µM (inactive) in experiment [2] and 1.85 µM (inactive) in experiment [3].
Turning to `N#C/C(=C/C=C/c1ccco1)C(N)=O`, the GI50 in experiment [2] and in experiment [3] was > 10 µM (inactive) each time.
For `N=c1oc2ccc(Cl)cc2cc1C(=O)NC1CCCCC1`, the values for the GI50 in experiment [1], in experiment [2] and in experiment [3] were > 100 µM (inactive), 73.8 µM (inactive) and 81.5 µM (inactive), respectively.
As to `COc1c2c(nc3ccccc13)-c1cc(C(CC(=O)OC(C)(C)C)C(=O)OC(C)C)c(CO)c(=O)n1C2` (stereo unspecified), the GI50 in experiment [1] was > 66.4 µM (inactive); in experiment [2], 22.2 µM (inactive); in experiment [3] it was 24.5 µM (inactive).
The corresponding values for `CCCCCOc1ccc(NC2=C(Cl)C(=O)c3c(O)ccc(O)c3C2=O)cc1` are 4.42 µM (inactive), > 10 µM (inactive) and 6.04 µM (inactive).
`C[n+]1cn(-c2ccc([N+](=O)[O-])cn2)c2ccccc21`: the GI50 in experiment [1], in experiment [2] and in experiment [3] was > 100 µM (inactive) throughout.
For `CCCSc1cc(Cl)c(C)cc1S(=O)(=O)n1ccnc1OCCCN(C)C`, the GI50 in experiment [1], in experiment [2] and in experiment [3] was > 100 µM (inactive) each time.
Consider `CC(=O)NNc1nc(C)c(C(/C=C/c2ccc([N+](=O)[O-])cc2)=N/NC(N)=O)s1`, for which the GI50 in experiment [1], in experiment [2] and in experiment [3] was > 100 µM (inactive) each time.
In the case of `Cc1ccc([S+]([O-])c2sccc2C=O)cc1` (stereo unspecified), the GI50 in experiment [1] is 25 µM (inactive); in experiment [2], 54.3 µM (inactive); in experiment [3], 26.5 µM (inactive).
In the case of `CSc1nc(=O)n(CCC#N)nc1SC`, the results for the GI50 in experiment [1], in experiment [2] and in experiment [3] were 23.5 µM (inactive), 51.8 µM (inactive) and > 100 µM (inactive), respectively.
For the molecule `CCOC(=O)CCC(NC(=O)C(N)c1ccc([N+](=O)[O-])cc1)C(=O)NC(CCC(=O)OCC)C(=O)OCC` (stereo unspecified), the GI50 in experiment [1] is > 100 µM (inactive).
As for `O=C(/C=C/c1ccc(Cl)cc1)Oc1ccc(C=C2CCC/C(=C\c3ccc(OC(=O)/C=C/c4ccc(Cl)cc4)cc3)C2=O)cc1`, the GI50 in experiment [1], in experiment [2] and in experiment [3] was > 100 µM (inactive) in each case.
For the molecule `CO/C(=C/C(=O)C(Cl)(Cl)Cl)CC/C(=C\C(=O)C(Cl)(Cl)Cl)OC`, the GI50 is 27.9 µM (inactive) in experiment [1], 25.1 µM (inactive) in experiment [2] and 29.5 µM (inactive) in experiment [3].
